Source: patent US7901893B2, “NPC1L1 (NPC3) and methods of identifying ligands thereof” (Merck Sharp & Dohme Corp., priority 2004, dated 2011)
Where two headings read alike, the source gives them in different places.

Columns and labels:
[1] = tested on: CHO background (no transfection); experiment: Effect of ezetimibe on cholesterol uptake, CHO background; format: cell-based, chinese hamster; settings: EZ (10 μM), CHO Control
Procedure: (§1) The effect of ezetimibe on the ability of CHO cells stably transfected with mouse or rat NPC1L1 or mouse SR-B1 to take up ^3H-labeled cholesterol was evaluated in pulse-chase experiments. One cDNA clone of mouse NPC1L1 (C7) and three clones of rat NPC1L1 (C7, C17 and C21) were evaluated. The ability of CHO cells stably transfected with mouse SR-B1, mouse NPC1L1 and rat NPC1L1 to take up labeled cholesterol, in the absence of ezetimibe, was also evaluated in the pulse-chase experiments. Data generated in these experiments are set forth, below, in Tables 4 and 5. Additionally, the quantity of total cholesterol taken up by transfected and untransfected CHO cells in the presence of four different unlabeled cholesterol concentrations was also evaluated.
(§2) Starve. The maintenance media (F12 HAMS, 1% Pen/Strep, 10% FCS) was removed and the cells were rinsed with serum-free HAMS media. The serum-free media was then replaced with 1 mL “starve” media (F12 HAMS, Pen/Strep, 5% lipoprotein deficient serum (LPDS). The cells were then starved overnight.
(§3) Pre-Incubation/pre-dose. Media was removed from all plates and replaced with fresh starve media and preincubated for 30 minutes. Half of the wells received media containing ezetimibe (stock soln in EtOH; final conc.=10 μM).
(§4) ^3H-Cholesterol Pulse. The following was added directly to each well: • 0.5 μCi ^3H-cholesterol (˜1.1×10^6 dpm/well) in 50 μl of a mixed bile salt micelle • 4.8 mM sodium taurocholate (2.581 mg/mL) • 0.6 mM sodium oleate (0.183 mg/mL) • 0.25 mM cholesterol (0.1 mg/mL) • Dispersed in “starve” media by ultrasonic vibration • Final media cholesterol concentration=5 μg/mL
(§5) Labeled cholesterol pulse time points were 4, 12, 24 minutes and 4 hours. Triplicate wells were prepared for each treatment.
(§6) Wash. At designated times, media was aspirated and cells were washed once with Hobbs Buffer A (50 mM Tris, 0.9% NaCl, 0.2% bovine serum albumin (BSA), pH 7.4) and once with Hobbs Buffer B (50 mM Tris, 0.9% NaCl, pH 7.4 (no BSA)) at 37° C.
(§7) A. 4, 12, 24 minute time points: Cells were digested overnight with 0.2N NaOH, 2 mL/well, room temperature. One 1.5 mL aliquot was removed from each well, neutralized & counted for radioactivity by scintillation counting.
(§8) B. 4 hour time point: The digested cells were analyzed by thin-layer chromatography to determine the content of cholesterol ester in the cells.
(§9) Extracts were spotted onto TLC plates and run for 30 minutes in 2 ml hexane:isopropanol (3:2) mobile phase for 30 minutes, followed by a second run in 1 ml hexane:isopropanol (3:2) mobile phase for 15 minutes.
(§10) C. Protein determination of cell extracts. Plates containing a sample of the cell extracts were placed on orbital shaker at 120 rpm for indicated times and then extracts are pooled into 12×75 tubes. Plates were dried and NaOH (2 ml/well) added. The protein content of the samples were then determined. Two additional 50 μl aliquots from all wells were assayed for total protein by the Pierce micro BCA method. The quantity of labeled cholesterol observed in the cells was normalized to the quantity of protein in the cells.

[2] = tested on: cholesterol absorption; settings: rat; cited from earlier work
[3] = tested on: cholesterol absorption; settings: cited from earlier work
[4] = molecular target: rat NPC1L1 (Rattus norvegicus, UniProt Q6T3U3); experiment: Effect of ezetimibe on cholesterol uptake, rat NPC1L1 transfected CHO cells; format: cell-based; parameters: expressed in transfected cells; pCDNA3); settings: EZ (10 μM); for Cholesteryl Ester, dpm ± sem / Cholesteryl Ester, dpm/mg protein ± sem / Free Cholesterol, dpm ± sem / Free Cholesterol, dpm/mg protein ± sem: 4 Hour Pulse
Procedure: as §1, §2, §3, §4, §5, §6, §7, §8, §9, §10

[5] = tested on: membrane preparations from cells expressing NPC1L1; experiment: Preliminary binding studies with HEK-293 membrane preparations
Procedure: Transient expression of NPC1L1. Plasmid pCR3.1 expressing rat NPC1L1 (Genbank AY437867) or human NPC1L1 (Genbank AY437865) were prepared using standard molecular biology protocols. HEK-293 cells (ATCC) were seeded at 10×10^6 cells per T-225 flask (Corning) in DMEM containing 10% fetal calf serum, 4.5 g/L D-glucose and L-glutamine, 18 hours prior to transfection. They were transiently transfected with 25 μg of DNA using Fugene transfection reagent (Roche Biochemical) at a ratio of 6:1 Fugene:DNA. Following transfection, the cells were incubated at 37° C. and 5% CO2 for 48 hours, and then harvested using PBS based cell dissociation buffer (Gibco), pelleted at 500×g, snap frozen on dry ice, and stored at −80° C.
Membrane preparation from HEK-293 cells. Membranes were prepared by resuspending the frozen cell pellets in ten volumes of 20 mM HEPES/Tris buffer at pH 7.40 containing 8% sucrose, and sonicating the suspensions with a probe sonicator on ice until most of the cells were lysed. […]
Cell lysates from HEK-293 cells expressing NPC1L1 (Lanes 1 and 3 of Panel 1 FIG. 13) and wild-type cells (Lanes 2 and 4 of Panel 1 FIG. 13) were analyzed by gel electrophoresis and Western blot with an anti-NPC1L1 antibody A1801. […]

In the case of `O=C1[C@H](CC[C@H](O)c2ccc(F)cc2)[C@@H](c2ccc(O)cc2)N1c1ccc(F)cc1` [ezetimibe], the “Cholesteryl Ester, dpm ± sem” value ([1]; 4 Hour Pulse) is reported as 208 ± 9 dpm, the “Cholesteryl Ester, dpm/mg protein ± sem” value ([1]; 4 Hour Pulse) is reported as 1902 ± 87 dpm/mg protein and the “Free Cholesterol, dpm ± sem” value ([1]; 4 Hour Pulse) is reported as 56792 ± 568 dpm. For the same molecule, the “Free Cholesterol, dpm/mg protein ± sem” value ([1]; 4 Hour Pulse) was 519607 ± 16203 dpm/mg protein, the “Total Cholesterol, dpm ± sem” value ([1]; 4 Min Pulse) was 3222 ± 26 dpm and the “Total Cholesterol, dpm/mg protein ± sem” value ([1]; 4 Min Pulse) was 31881 ± 483 dpm/mg protein. For the same molecule, the “Total Cholesterol, dpm ± sem” value ([1]; 12 Min Pulse) was 4532 ± 165 dpm, the “Total Cholesterol, dpm/mg protein ± sem” value ([1]; 12 Min Pulse) was 43391 ± 1197 dpm/mg protein and the “Total Cholesterol, dpm ± sem” value ([1]; 24 Min Pulse) was 6678 ± 215 dpm. The “Total Cholesterol, dpm/mg protein ± sem” value ([1]; 24 Min Pulse) was 61764 ± 2131 dpm/mg protein, the “potency (ED50) in vivo” value [2] was 0.03 mpk and the “ED50” value ([3]; monkey) was 0.5 µg/kg. The “potency (ED50) in vivo” value ([3]; rhesus) was 0.0005 mpk, the “Cholesteryl Ester, dpm ± sem” value ([4]; rNPC1L1(C7)) was 191 ± 54 dpm and the “Cholesteryl Ester, dpm/mg protein ± sem” value ([4]; rNPC1L1(C7)) was 1496 ± 403 dpm/mg protein. For the same molecule, the “Free Cholesterol, dpm ± sem” value ([4]; rNPC1L1(C7)) was 70628 ± 212 dpm, the “Free Cholesterol, dpm/mg protein ± sem” value ([4]; rNPC1L1(C7)) was 556855 ± 7481 dpm/mg protein and the “Cholesteryl Ester, dpm ± sem” value ([4]; rNPC1L1(C17)) was 202 ± 10 dpm. The “Cholesteryl Ester, dpm/mg protein ± sem” value ([4]; rNPC1L1(C17)) was 1510 ± 62 dpm/mg protein, the “Free Cholesterol, dpm ± sem” value ([4]; rNPC1L1(C17)) was 71646 ± 446 dpm and the “Free Cholesterol, dpm/mg protein ± sem” value ([4]; rNPC1L1(C17)) was 536651 ± 7146 dpm/mg protein. For the same molecule, the “Cholesteryl Ester, dpm ± sem” value ([4]; rNPC1L1(C21)) was 454 ± 33 dpm, the “Cholesteryl Ester, dpm/mg protein ± sem” value ([4]; rNPC1L1(C21)) was 3193 ± 265 dpm/mg protein and the “Free Cholesterol, dpm ± sem” value ([4]; rNPC1L1(C21)) was 69106 ± 711 dpm. The “Free Cholesterol, dpm/mg protein ± sem” value ([4]; rNPC1L1(C21)) was 485460 ± 4410 dpm/mg protein, the “Total Cholesterol, dpm ± sem” value ([4]; 4 Min Pulse, rNPC1L1(C7)) was 3268 ± 121 dpm and the “Total Cholesterol, dpm/mg protein ± sem” value ([4]; 4 Min Pulse, rNPC1L1(C7)) was 27285 ± 968 dpm/mg protein. For the same molecule, the “Total Cholesterol, dpm ± sem” value ([4]; 4 Min Pulse, rNPC1L1(C17)) was 3676 ± 134 dpm, the “Total Cholesterol, dpm/mg protein ± sem” value ([4]; 4 Min Pulse, rNPC1L1(C17)) was 28675 ± 527 dpm/mg protein and the “Total Cholesterol, dpm ± sem” value ([4]; 4 Min Pulse, rNPC1L1(C21)) was 3769 ± 147 dpm. For the same molecule, the “Total Cholesterol, dpm/mg protein ± sem” value ([4]; 4 Min Pulse, rNPC1L1(C21)) was 27098 ± 689 dpm/mg protein, the “Total Cholesterol, dpm ± sem” value ([4]; 12 Min Pulse, rNPC1L1(C7)) was 4664 ± 63 dpm and the “Total Cholesterol, dpm/mg protein ± sem” value ([4]; 12 Min Pulse, rNPC1L1(C7)) was 38581 ± 784 dpm/mg protein. The “Total Cholesterol, dpm ± sem” value ([4]; 12 Min Pulse, rNPC1L1(C17)) was 4579 ± 257 dpm, the “Total Cholesterol, dpm/mg protein ± sem” value ([4]; 12 Min Pulse, rNPC1L1(C17)) was 34063 ± 1619 dpm/mg protein and the “Total Cholesterol, dpm ± sem” value ([4]; 12 Min Pulse, rNPC1L1(C21)) was 4703 ± 231 dpm. For the same molecule, the “Total Cholesterol, dpm/mg protein ± sem” value ([4]; 12 Min Pulse, rNPC1L1(C21)) was 33985 ± 1928 dpm/mg protein, the “Total Cholesterol, dpm ± sem” value ([4]; 24 Min Pulse, rNPC1L1(C7)) was 7829 ± 204 dpm and the “Total Cholesterol, dpm/mg protein ± sem” value ([4]; 24 Min Pulse, rNPC1L1(C7)) was 63482 ± 368 dpm/mg protein. The “Total Cholesterol, dpm ± sem” value ([4]; 24 Min Pulse, rNPC1L1(C17)) was 8192 ± 237 dpm, the “Total Cholesterol, dpm/mg protein ± sem” value ([4]; 24 Min Pulse, rNPC1L1(C17)) was 62279 ± 4352 dpm/mg protein and the “Total Cholesterol, dpm ± sem” value ([4]; 24 Min Pulse, rNPC1L1(C21)) was 8760 ± 293 dpm. The “Total Cholesterol, dpm/mg protein ± sem” value ([4]; 24 Min Pulse, rNPC1L1(C21)) was 66165 ± 2181 dpm/mg protein.

With `O=C(O)[C@H]1O[C@@H](Oc2ccc([C@@H]3[C@@H](CC[C@H](O)c4ccc(F)cc4)C(=O)N3c3ccc(F)cc3)cc2)[C@H](O)[C@@H](O)[C@@H]1O` [Compound 1, Ezetimibe glucuronide] the “binding to membrane preparations from cells expressing NPC1L1” value [5] was “specific binding” and the “binding to membranes from mock transfected cells” value [5] was “no specific binding”.
